Assay results taken from paper PMC7689250, “Synthetic Peptide Libraries Designed From a Minimal Alpha-Helical Domain of AS-48-Bacteriocin Homologs Exhibit Potent Antibacterial Activity” (Frontiers in Microbiology, 2020).
Like-named read-outs stand apart in the source and are kept apart here. Residues, ends and D or L forms follow the SMILES beside them.

Experiments:
P. aeruginosa (PAO1) = assay type: cell-based, Pseudomonas aeruginosa; conditions: for MBC: PAO1; for MIC: PAO1, 16 h
How it was run: (§1)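 MIC in Mueller-Hinton broth with 1 × 10^6 CFU/mL bacteria, overnight cultures grown first in LB (E. coli, P. aeruginosa, S. aureus) or Todd-Hewitt (S. pyogenes); growth read as OD 600. Library members screened at half the parent peptide MIC; MBC as lowest concentration giving no colonies after plating MIC wells, 37°C overnight.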

[1] = system: GFP-expressing E. coli strain BL21; experiment: Live imaging of GFP leakage; assay type: cell-based, Escherichia coli; conditions: 16 μM peptide, 8 h, 37°C, images every 10 min
Procedure: To observe bacterial cell death in the presence of peptide in real time, fluorescence microscopy was employed using GFP-expressing E. coli strain BL21. MIC assays were conducted against BL21-GFP to determine the peptide concentration used for microscopy experiments. The peptide was suspended in PBS and added to diluted bacterial cells. GFP-expressing E. coli in the presence of peptide were imaged on the Eclipse Ti-E inverted microscope (Nikon) using GFP and DIC channels for 8 h at 37°C, with images taken every 10 min ([Fields et al., 2020]). Syn-xiamencin-2, a peptide with no detectable antimicrobial activity below 128 μM was also evaluated as a negative peptide candidate control.

S. aureus (USA300) = assay type: cell-based, Staphylococcus aureus; conditions: for MBC: USA300; for MIC: USA300, 16 h
How it was run: as §1

E. coli strain BL21 = experiment: Propidium iodide uptake by FACS; assay type: cell-based, Escherichia coli; conditions: 2, 4, 8, 16 or 32 μM peptide in saline, 1 h, ambient temperature, 1 × 10^4 events
Procedure: For determination of bacterial cell death via membrane disruption, bacterial cells were subjected to propidium iodide (PI) uptake and quantified using fluorescence-activated cell sorting (FACS). E. coli strain BL21 were first diluted to a OD 600 of 1.0. Cells were washed three times in 0.85% NaCl (saline) solution and resuspended in either 1.5 mL of either saline, 70% isopropyl alcohol, or peptide diluted to either 2, 4, 8, 16 or 32 μM in saline for 1 h at ambient temperature. Following incubation, cells were pelleted and resuspended in 1 mL of saline with 1.5 μL/mL propidium iodide and incubated in the dark for 15 min. The samples were washed again with saline three times and run through a Beckman Coulter FC500 flow cytometer. The FL3 detector, using the propidium iodine PE-Alexa Fluor 610 emission filter, was used to sort the cells. 1 × 10^4 events were collected for each sample run.

E. coli (BL21) = assay type: cell-based, Escherichia coli
How it was run: as §1

S. pyogenes (M1) = assay type: cell-based, Streptococcus pyogenes; conditions: for MBC: M1
How it was run: as §1

sheep erythrocytes = assay type: cell-based; conditions: red cells of sheep, 1 h
How it was run: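 Washed defibrinated sheep blood, diluted 1:25 in PBS, incubated 1 h at 37 °C with peptide at the MIC-assay concentrations (sample:blood 1:10). Haemoglobin release read as supernatant absorbance at 450 nm; percent haemolysis normalised to PBS and 10% Triton controls.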

[2] = E. coli BL21, running text b43, unit printed nm

CC[C@H](C)[C@H](NC(=O)[C@H](Cc1c[nH]c2ccccc12)NC(=O)[C@H](C)NC(=O)[C@H](CCCNC(=N)N)NC(=O)[C@H](CCCCN)NC(=O)CNC(=O)[C@H](CCCCN)NC(=O)[C@H](CCC(=O)O)NC(=O)[C@H](CCC(N)=O)NC(=O)[C@@H](NC(=O)[C@H](CCCCN)NC(=O)[C@H](CCCCN)NC(=O)[C@H](CCCCN)NC(=O)[C@H](CC(C)C)NC(=O)[C@H](CCCNC(=N)N)NC(=O)[C@H](CCC(N)=O)NC(=O)[C@H](Cc1ccccc1)NC(=O)[C@@H](NC(=O)[C@@H](NC(=O)[C@H](CCC(=O)O)NC(=O)[C@H](CCCCN)NC(=O)CNC(=O)[C@H](C)N)[C@@H](C)O)[C@@H](C)CC)[C@@H](C)CC)C(=O)N[C@@H](C)C(=O)N[C@@H](Cc1c[nH]c2ccccc12)C(=O)O [Syn-larvacin-27] (H-AGKETIFQRLKKKIQEKGKRAWIAW-OH; N-terminus and C-terminus assumed)
MBC (P. aeruginosa (PAO1)): 64 µM | MIC (P. aeruginosa (PAO1)): 32 µM | GFP leakage / change in fluorescence [1]: significant decrease in fluorescence | MBC (S. aureus (USA300)): 8 µM | MIC (S. aureus (USA300)): 8 µM | PI positive cells (E. coli strain BL21): higher cell counts of PI-stained cells in a dose-dependent manner | MIC (E. coli (BL21); BL21): 0.0156 µM | MIC (E. coli (BL21); BL21, 16 h): <0.0156 µM | MBC (E. coli (BL21); [2]): below 15.6 nM | MIC (E. coli (BL21); [2]): below 15.6 nM | MBC (S. pyogenes (M1)): 0.5 µM | MIC (S. pyogenes (M1); S. pyogenes M1): 0.125 µM | MIC (S. pyogenes (M1); S. pyogenes M1, running text b43, unit printed nm): 0.125 µM

CC[C@H](C)[C@H](NC(=O)[C@H](CCCCN)NC(=O)[C@H](CCCCN)NC(=O)[C@H](CCCCN)NC(=O)[C@H](CC(C)C)NC(=O)[C@H](CCCNC(=N)N)NC(=O)[C@H](CCC(N)=O)NC(=O)[C@H](Cc1ccccc1)NC(=O)[C@@H](NC(=O)[C@@H](NC(=O)[C@H](CCC(=O)O)NC(=O)[C@H](CCCCN)NC(=O)CNC(=O)[C@H](C)N)[C@@H](C)O)[C@@H](C)CC)C(=O)N[C@@H](CCC(N)=O)C(=O)N[C@@H](CCC(=O)O)C(=O)N[C@@H](CCCCN)C(=O)N[C@@H](Cc1c[nH]c2ccccc12)C(=O)N[C@@H](CCCCN)C(=O)N[C@@H](CCCNC(=N)N)C(=O)N[C@@H](C)C(=O)N[C@H](C(=O)N[C@H](C(=O)N[C@@H](C)C(=O)N[C@@H](Cc1c[nH]c2ccccc12)C(=O)O)[C@@H](C)CC)[C@@H](C)O [Syn-larvacin-43] (H-AGKETIFQRLKKKIQEKWKRATIAW-OH; N-terminus and C-terminus assumed)
MBC (P. aeruginosa (PAO1)): 16 µM | MIC (P. aeruginosa (PAO1)): 16 µM | Percent Hemolysis (sheep erythrocytes): 19.9% | GFP leakage / change in fluorescence [1]: significant decrease in fluorescence | MBC (S. aureus (USA300)): 4 µM | MIC (S. aureus (USA300)): 4 µM | PI positive cells (E. coli strain BL21): higher cell counts of PI-stained cells in a dose-dependent manner | MBC (E. coli (BL21); BL21): 1 µM | MIC (E. coli (BL21); BL21, 16 h): 1 µM | MBC (S. pyogenes (M1)): 4 µM | MIC (S. pyogenes (M1); M1, 16 h): 4 µM
